IC50 data for ten compounds are collected here from BindingDB's records for doi:10.1016/j.bmcl.2012.03.090 (Spanish National Cancer Research Centre (Cnio), 2012).

The experiment deals with Phosphatidylinositol 3-kinase regulatory subunit alpha/4,5-bisphosphate 3-kinase catalytic subunit alpha isoform (Homo sapiens, UniProt P27986+P42336). The experiment is described as follows: Inhibition of human PI3Kalpha (p110alpha/p85alpha) by ADP accumulation based HTRF assay. Background: Time-resolved FRET reads energy transfer from a long-lived donor to a nearby acceptor.

pIC50: −log10 of the molar value.

Sequence of Phosphatidylinositol 3-kinase regulatory subunit alpha/4,5-bisphosphate 3-kinase catalytic subunit alpha isoform (P27986 whole entry, canonical isoform): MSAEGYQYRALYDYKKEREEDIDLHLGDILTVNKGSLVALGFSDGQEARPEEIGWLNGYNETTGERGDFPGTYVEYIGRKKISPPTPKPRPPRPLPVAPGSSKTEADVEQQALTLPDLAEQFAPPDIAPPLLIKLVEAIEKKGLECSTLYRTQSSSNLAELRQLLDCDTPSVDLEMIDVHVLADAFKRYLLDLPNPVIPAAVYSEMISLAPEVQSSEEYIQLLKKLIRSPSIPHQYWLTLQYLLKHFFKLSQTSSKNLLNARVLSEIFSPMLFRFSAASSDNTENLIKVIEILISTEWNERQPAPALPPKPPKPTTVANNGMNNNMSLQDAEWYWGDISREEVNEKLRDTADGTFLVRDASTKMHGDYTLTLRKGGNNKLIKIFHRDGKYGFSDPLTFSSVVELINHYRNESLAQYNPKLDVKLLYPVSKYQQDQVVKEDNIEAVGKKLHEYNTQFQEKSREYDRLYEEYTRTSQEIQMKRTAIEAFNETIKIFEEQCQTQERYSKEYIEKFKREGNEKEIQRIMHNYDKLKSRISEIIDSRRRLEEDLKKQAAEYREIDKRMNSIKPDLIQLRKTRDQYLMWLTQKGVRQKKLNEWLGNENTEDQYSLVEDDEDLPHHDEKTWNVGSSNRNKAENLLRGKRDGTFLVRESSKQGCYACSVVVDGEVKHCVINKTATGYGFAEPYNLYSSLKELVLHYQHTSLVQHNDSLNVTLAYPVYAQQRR
Sequence of Phosphatidylinositol 3-kinase regulatory subunit alpha/4,5-bisphosphate 3-kinase catalytic subunit alpha isoform (P42336 whole entry, canonical isoform): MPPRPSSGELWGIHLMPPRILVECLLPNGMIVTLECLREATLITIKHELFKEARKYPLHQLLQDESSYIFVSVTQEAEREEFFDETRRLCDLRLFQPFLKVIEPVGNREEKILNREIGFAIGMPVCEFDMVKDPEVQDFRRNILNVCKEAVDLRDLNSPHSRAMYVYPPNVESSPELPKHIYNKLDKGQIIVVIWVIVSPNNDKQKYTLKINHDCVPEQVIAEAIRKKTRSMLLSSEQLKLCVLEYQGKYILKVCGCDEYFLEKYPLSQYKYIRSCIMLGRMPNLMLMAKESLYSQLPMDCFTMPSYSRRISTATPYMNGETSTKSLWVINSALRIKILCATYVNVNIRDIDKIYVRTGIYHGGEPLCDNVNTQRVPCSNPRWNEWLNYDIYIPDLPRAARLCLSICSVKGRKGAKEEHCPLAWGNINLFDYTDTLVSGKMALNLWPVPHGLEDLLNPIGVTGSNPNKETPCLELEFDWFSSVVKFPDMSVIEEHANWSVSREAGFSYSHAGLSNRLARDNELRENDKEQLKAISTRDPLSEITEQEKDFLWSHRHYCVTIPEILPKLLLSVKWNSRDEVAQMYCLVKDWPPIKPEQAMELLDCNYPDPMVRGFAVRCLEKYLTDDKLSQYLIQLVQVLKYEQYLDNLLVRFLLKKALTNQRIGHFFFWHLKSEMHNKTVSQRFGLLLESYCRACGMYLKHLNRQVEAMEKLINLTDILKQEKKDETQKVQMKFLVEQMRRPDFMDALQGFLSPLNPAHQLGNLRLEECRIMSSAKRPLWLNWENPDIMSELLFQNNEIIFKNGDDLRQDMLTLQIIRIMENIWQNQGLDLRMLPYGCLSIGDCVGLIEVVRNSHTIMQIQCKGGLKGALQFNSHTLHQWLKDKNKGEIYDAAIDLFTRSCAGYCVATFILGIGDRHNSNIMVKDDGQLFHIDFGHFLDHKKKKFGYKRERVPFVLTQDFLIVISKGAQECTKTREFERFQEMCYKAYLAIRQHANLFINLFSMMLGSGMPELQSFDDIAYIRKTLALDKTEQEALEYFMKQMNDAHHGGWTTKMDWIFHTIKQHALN

A word on the pIC50: it is the negative decadic logarithm of the IC50, by convention in mol/L. A higher pIC50 goes with a small IC50. As to `Cc1nc(N)ncc1-c1cn2cc(CN3CCN(S(C)(=O)=O)CC3)nc2c(N2CCOCC2)n1`, the pIC50 was 7.49. Next, `Cc1ncc(-c2cn3cc(CN4CCN(S(C)(=O)=O)CC4)nc3c(N3CCOCC3)n2)cn1`: 7.68. `CS(=O)(=O)N1CCC2(CC1)CN(Cc1cn3cc(-c4cnc(N)nc4)nc(N4CCOCC4)c3n1)C2` showed a pIC50 of 6.96.

Consider `CS(=O)(=O)N1CCN(Cc2cn3cc(-c4ccc(N)nc4)nc(N4CCOCC4)c3n2)CC1`, for which the negative logarithm of the IC50 (pIC50) is 6.77.

The compound `COc1ccc(-c2cn3cc(CN4CCN(S(C)(=O)=O)CC4)nc3c(N3CCOCC3)n2)cn1` showed a pIC50 of 5.34.

In turn, `CS(=O)(=O)N1CCN(Cc2cn3cc(-c4cnc5[nH]ccc5c4)nc(N4CCOCC4)c3n2)CC1` showed a pIC50 of 6.95.

In turn, `Cc1ccc(-c2cn3cc(CN4CCN(S(C)(=O)=O)CC4)nc3c(N3CCOCC3)n2)cn1` showed a pIC50 of 6.11. Under `Cc1ccncc1-c1cn2cc(CN3CCN(S(C)(=O)=O)CC3)nc2c(N2CCOCC2)n1` stands 6.33; under `CC(=O)Nc1ccc(-c2cn3cc(CN4CCN(S(C)(=O)=O)CC4)nc3c(N3CCOCC3)n2)cn1`, 6.68; under `CN(C)CC(=O)N1CCN(Cc2cn3cc(-c4cnc(N)nc4)nc(N4CCOCC4)c3n2)CC1`, 7.47.
